Legend:
[1] = target: EGFR (human) (UniProt P00533); conditions: kb
[2] = target: EGFR (human) (UniProt P00533)

Sequence of EGFR (human) (P00533 whole entry, looked up): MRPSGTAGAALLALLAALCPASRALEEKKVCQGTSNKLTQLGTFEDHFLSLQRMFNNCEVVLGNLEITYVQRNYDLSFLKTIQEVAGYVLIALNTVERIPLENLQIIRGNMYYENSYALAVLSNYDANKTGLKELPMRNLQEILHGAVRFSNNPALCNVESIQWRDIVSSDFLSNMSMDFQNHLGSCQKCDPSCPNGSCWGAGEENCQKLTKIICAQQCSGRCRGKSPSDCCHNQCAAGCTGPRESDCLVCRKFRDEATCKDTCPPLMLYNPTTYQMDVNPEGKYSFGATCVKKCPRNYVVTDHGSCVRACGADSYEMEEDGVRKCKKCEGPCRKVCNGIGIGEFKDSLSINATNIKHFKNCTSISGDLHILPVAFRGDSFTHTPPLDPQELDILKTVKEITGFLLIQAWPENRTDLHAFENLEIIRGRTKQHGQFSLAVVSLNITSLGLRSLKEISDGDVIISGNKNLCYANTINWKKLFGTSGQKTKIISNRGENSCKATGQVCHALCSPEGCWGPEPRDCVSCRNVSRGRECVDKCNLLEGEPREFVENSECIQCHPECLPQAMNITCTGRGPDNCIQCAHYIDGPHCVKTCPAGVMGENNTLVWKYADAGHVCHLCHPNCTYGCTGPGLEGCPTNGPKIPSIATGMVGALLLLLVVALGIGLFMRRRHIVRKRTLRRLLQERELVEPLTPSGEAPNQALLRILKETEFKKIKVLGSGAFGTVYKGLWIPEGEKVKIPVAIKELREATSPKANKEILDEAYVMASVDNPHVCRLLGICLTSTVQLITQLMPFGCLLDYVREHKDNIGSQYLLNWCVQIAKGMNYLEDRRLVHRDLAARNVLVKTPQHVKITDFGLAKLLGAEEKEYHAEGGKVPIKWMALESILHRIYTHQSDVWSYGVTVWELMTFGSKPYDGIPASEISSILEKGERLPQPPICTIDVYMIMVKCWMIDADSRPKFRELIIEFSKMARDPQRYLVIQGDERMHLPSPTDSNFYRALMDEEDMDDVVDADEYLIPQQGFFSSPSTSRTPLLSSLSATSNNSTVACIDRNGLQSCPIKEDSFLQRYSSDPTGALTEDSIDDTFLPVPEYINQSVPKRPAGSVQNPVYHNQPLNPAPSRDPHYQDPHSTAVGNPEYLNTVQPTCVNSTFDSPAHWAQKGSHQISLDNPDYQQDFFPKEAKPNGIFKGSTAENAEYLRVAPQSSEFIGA

Row | Compound | IC50 [1] [nM] | IC50 [2] [nM]
1 | COc1cc2ncnc(Nc3cccc(Cl)c3F)c2cc1OC1CCN(C(=O)Nc2c(C)noc2C)CC1 | 17 | –
2 | COc1cc2ncnc(Nc3cccc(Cl)c3F)c2cc1O[C@@H]1CCCN(C(=O)Cc2cccs2)C1 | 30 | –
3 | COc1cc2ncnc(Nc3cccc(Cl)c3F)c2cc1OC1CCN(C(=O)c2ccno2)CC1 | 17 | –
4 | COc1cc2ncnc(Nc3cccc(Cl)c3F)c2cc1O[C@@H]1C[C@@H](C(=O)NCCC#N)N(C)C1 | 0.063 | 0.012
5 | COc1cc2c(Nc3cccc(Cl)c3F)ncnc2cc1OC1CCN(C(=O)c2cccnc2)CC1 | 87 | –
6 | COc1cc2ncnc(Nc3cccc(Cl)c3F)c2cc1O[C@H]1C[C@H](C(=O)NCCNC(C)=O)N(C)C1 | 0.144 | 0.008
7 | COc1cc2ncnc(Nc3cccc(Cl)c3F)c2cc1O[C@H]1C[C@H](C(=O)N[C@H]2COC[C@@H]2O)N(C)C1 | 0.139 | 0.01
8 | COc1cc2c(Nc3cccc(Cl)c3F)ncnc2cc1OC1CCN(C(=O)Cc2cc(C)no2)CC1 | 47 | –
9 | COc1cc2ncnc(Nc3cccc(Cl)c3F)c2cc1OC1CCN(C(=O)c2ccccn2)CC1 | 16 | –

From the Kinase Knowledgebase extract (Sharma et al. 2016)
